The source of these data is article PMC3938723, “Learning from Host-Defense Peptides: Cationic, Amphipathic Peptoids with Potent Anticancer Activity” (PLoS ONE, 2014).

Non-standard residues stand in square brackets, D forms with d. Residues, ends and D or L forms follow the SMILES beside them. Nspe = C[C@H](NCC(=O)O)c1ccccc1; Nlys = NCCCCNCC(=O)O

The test system of one data set is MCF-7 (breast cancer). The experiment in a line: MTS cell viability assay, MCF-7. The note with it: 72 h. It counts as cell-based. Here is the method:
(§1) MCF-7, MCF-7/TxT50 and OVCAR-3 (available in ATCC) were kindly provided by Professor Branimir Sikic's lab at Stanford University, and were cultured in McCoy's 5A media (GIBCO) with 10% FBS and antibiotics. Primary dermal fibroblasts were gifts from Lifeline Cell Technology and were cultured <6 passages according to the protocol Lifeline provides. All the cells were cultured in cell incubators (Thermo Scientific) at 37°C with 5% CO2.
(§2) This assay is a colorimetric method for determining the number of viable cells in proliferation. Aliquots of 100 µl media containing 1×10^4 cells were distributed into each well of a 96-well plate (BD Falcon). The following day, when cell density reaches about ∼40% confluency, the cell media were removed and replaced with serial dilutions of peptoid stocks in culturing media. For peptoid dilutions, peptoid stocks were initially diluted in media at 100 µM and then diluted by half in series using a multichannel pipette, and maintained in 100 µl media for each concentration with triple repeats. After peptoid solutions were transferred onto cells in 96-well plates, cells were incubated at 37°C for certain time periods. Then 20 µl of the CellTiter 96 Aqueous Non-Radioactive cell proliferation assay (Promega) reagent which contains a tetrazolium compound, [3-(4,5-dimethylthiazol-2-yl)-5-(3-carboxymethoxyphenyl)-2-(4-sulfophenyl)-2H-tetrazolium, inner salt; MTS(a)], was added to each well and cells were further incubated for 2 h to metabolize. The absorbance of formazan products were measured at 490 nm in a microplate reader (Molecular Devices). Percentage of cell viability = (A -A testblank)/(A control -A blank)×100, where A is the absorbance of the test well and A control the average absorbance of wells with cells not treated with peptoids. A testblank (media, MTS, and diluted peptoids) and A blank (media and MTS) were background absorbances measured in the absence of cells.
(§3) The activity and selectivity of these peptoids against cancer cells were evaluated in vitro. Their cytotoxicity was tested in three cancer cell lines, MCF-7 (human breast cancer), LNCaP (human prostate cancer), and OVCAR-3 (human ovarian cancer). To estimate the selectivity of these peptoids in vitro, hemolytic activities of some peptoids were cited from previously published work (Table 2 **column), and the MRC-5 cell line (human fibroblasts derived from fetal lung tissues) and primary dermal fibroblasts were also tested as normal cell controls. Briefly, cells were treated with peptoids diluted in culturing media for certain time periods, and then cell viability was measured via MTS assays.
Background: Tetrazolium dyes change colour on reduction, which living cells bring about.

The test system of another data set is LNCaP (prostate cancer). The experiment in a line: MTS cell viability assay, LNCaP. It counts as cell-based. The note with it: 72 h. As to the method:
as §2, §3

The subject of a further data set is OVCAR3 (ovarian cancer). The experiment in a line: MTS cell viability assay, OVCAR3. The note with it: 72 h. Format: cell-based. Here is the method: as §1, §2, §3
Data set [1] has as its system MRC-5 (fetal lung fibroblast). Briefly: MTS cell viability assay, MRC-5. Format: cell-based. The note with it: 72 h. As to the method: as §1, §2, §3
Data set [2] has as its system human breast cancer xenograft. Briefly: Human breast cancer orthotopic xenograft mouse model, tumor growth. It counts as in vivo. The note with it: ~1 mg/kg (100 µl of 110 µM in PBS) injected into mammary fat pad three times a week, NSG mice, versus control peptoid 1 11mer-NLeu; caliper; P = 0.0014, t test. Here is the method: 80,000 cells from a dissociated second generation metastatic breast cancer tumor were suspended in Medium 199 containing 25% Matrix Matrigel (Becton Dickinson 354248) and injected into the mammary fat pad of 4–8 week old NOD.Cg-Prkdc^scid Il2rg^tm1Wjl/SzJ (NSG) mice. After two weeks, 100 µl PBS containing 110 µM peptoid 1 or control peptide was injected into the mammary fat pad three times a week, roughly at a dose of 1 mg/kg. Tumor volumes were determined using direct caliper measurements following […] of treatment.
Human breast cancer cells were implanted in the mammary fat pad of immunocompromised mice.
Figure 5 Reduction of tumor volumes in a human breast cancer xenograft mouse model treated with peptoid 1. Cancer cells (8×10^4 cells) isolated from the second generation xenografts of human breast cancer tissues were implanted s.c. into the lower left mammary fat pads of 5–6-week-old immunocompromised NSG (NOD.Cg-Prkdc^scid Il2rg^tm1Wjl/SzJ) female mice. Two weeks after cell implantation, 100 µl of peptoid 1 and control peptoids were injected into xenografts at 110 µM in PBS (∼1 mg/kg) three times a week, up to 8 weeks. Tumor sizes were measured by a caliper. P = 0.0014, t test.
For orientation: A xenograft is tissue or cells of one species grown in another, often human tumour cells in immunodeficient mice.

The subject of another data set is MCF-7 cells. The experiment in a line: Apoptotic DNA ladder assay. The note with it: 24 h treatment. It counts as cell-based, human.
For a further data set, the system named is human red blood cells. The note with it: concentration causing 10% hemolysis of human red blood cells; cited from earlier work. From the text: Table 2 Peptoid Cytotoxicity in cancer cell lines and control cells. | column: HC10 (µM) ** || The chain length is believed to influence not only the activity but also modes of action of cationic, amphipathic peptides, [34]. […] Thus we limited the chain length of peptoids to 13 residues at most, and studied 1 9mer which has the same charge-to-length ratio (CTLR) as peptoid ...

As to `C[C@@H](c1ccccc1)N(CC(N)=O)C(=O)CN(C(=O)CN(CCCCN)C(=O)CN(C(=O)CN(C(=O)CN(CCCCN)C(=O)CN(C(=O)CN(C(=O)CN(CCCCN)C(=O)CN(C(=O)CN(C(=O)CNCCCCN)[C@@H](C)c1ccccc1)[C@@H](C)c1ccccc1)[C@@H](C)c1ccccc1)[C@@H](C)c1ccccc1)[C@@H](C)c1ccccc1)[C@@H](C)c1ccccc1)[C@@H](C)c1ccccc1` [Peptoid 1, H-(NLys-Nspe-Nspe)4-NH2] (H-[Nlys][Nspe][Nspe][Nlys][Nspe][Nspe][Nlys][Nspe][Nspe][Nlys][Nspe][Nspe]-NH2), the “LC50 MCF-7 (breast cancer)” value with MCF-7 (breast cancer) came to 5 µM. In addition, the “LC50 LNCaP (prostate cancer)” value with LNCaP (prostate cancer) is listed as 5 µM. For the same molecule, the “LC50 OVCAR3 (ovarian cancer)” value with OVCAR3 (ovarian cancer) is 6 µM. Moreover, the “LC50 MRC-5 (fetal lung fibroblast)” value in data set [1] is given as 8 µM. The tumor growth entry in data set [2] is “significantly inhibited the tumor growth”. In addition, the “typical apoptotic DNA ladders” value with MCF-7 cells is recorded as “not observed”. Further, the HC10 in the data set on human red blood cells is recorded as 21 µM.
